In patent US20080175794A1, “Substituted Pyridazinyl- and Pyrimidinyl-Quinolin-4-Ylamine Analogues” (NEUROGEN CORPORATION, priority 2005, published 2008):

Assays:
VR = VR (Homo sapiens, UniProt Q8NER1); details: typical value, non-selective cation channel blocker binding to VR; cited from earlier work
human capsaicin receptor = biological target: T1, human capsaicin receptor (Homo sapiens, UniProt Q8NER1); assay: Calcium mobilization assay, determination of antagonist activity (Example 6); type: cell-based; details: Table III; assay provided in Example 6; cells expressing human capsaicin receptor, capsaicin at EC50
T1 construct: expressed in transfected cells
T1 sequence (Q8NER1 whole entry): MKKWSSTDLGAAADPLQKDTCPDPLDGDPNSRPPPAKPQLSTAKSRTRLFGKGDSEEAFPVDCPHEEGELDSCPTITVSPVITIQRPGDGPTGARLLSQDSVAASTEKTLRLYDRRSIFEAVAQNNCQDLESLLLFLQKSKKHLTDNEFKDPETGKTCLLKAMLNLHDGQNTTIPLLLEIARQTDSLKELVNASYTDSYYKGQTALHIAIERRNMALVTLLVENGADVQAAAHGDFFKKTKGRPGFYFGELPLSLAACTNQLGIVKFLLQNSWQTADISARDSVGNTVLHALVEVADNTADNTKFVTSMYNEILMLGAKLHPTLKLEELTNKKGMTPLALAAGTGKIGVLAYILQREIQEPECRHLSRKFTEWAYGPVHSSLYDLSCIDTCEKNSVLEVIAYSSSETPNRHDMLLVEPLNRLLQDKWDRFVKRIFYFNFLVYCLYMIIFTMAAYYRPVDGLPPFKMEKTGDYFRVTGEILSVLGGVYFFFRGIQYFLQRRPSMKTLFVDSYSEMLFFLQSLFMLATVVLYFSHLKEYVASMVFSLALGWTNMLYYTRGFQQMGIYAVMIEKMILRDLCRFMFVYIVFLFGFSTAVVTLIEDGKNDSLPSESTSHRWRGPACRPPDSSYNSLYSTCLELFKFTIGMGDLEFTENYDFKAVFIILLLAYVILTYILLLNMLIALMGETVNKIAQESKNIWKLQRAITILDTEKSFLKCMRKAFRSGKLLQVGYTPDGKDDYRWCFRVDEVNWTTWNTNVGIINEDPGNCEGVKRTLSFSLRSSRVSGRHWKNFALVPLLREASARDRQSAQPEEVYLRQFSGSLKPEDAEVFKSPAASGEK
In short: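 Stable HEK293 clones expressing full-length human capsaicin receptor, loaded with Fluo-3 AM in KRH buffer pH 7.4 (1–2 h, 37 °C). Test compound (1–5 μM final) preincubated 0.5–6 h at room temperature in the dark, then capsaicin added at its EC50. FLIPR/Fluoroskan calcium signal; IC50 as concentration halving the capsaicin response.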

Sequence of VR (Q8NER1 whole entry): as above

Compound	Ki (VR)	IC50 (human capsaicin receptor)
Cl.Cl.Cl.Cl.Cl.Cl.N.N.N.N.N.N.N.N.N.N.N.N.N.N.[O-2].[O-2].[Ru+3].[Ru+3].[Ru+4] [ruthenium red]	≥ 140 µM	
CC(=O)c1cc(C(F)(F)F)c(-c2cnc3c(Nc4ccc(C(F)(F)F)cn4)ccnc3n2)nn1 [Compound 68, 1-[5-(trifluoromethyl)-6-(8-{[5-(trifluoromethyl)pyridin-2-yl]amino}pyrido[2,3-b]pyrazin-3-yl)pyridazin-3-yl]ethanone]		< 1 µM
FC(F)(F)c1ccnnc1-c1cnc2c(Nc3cnc4ccccc4n3)ccnc2n1 [Compound 45, N-2-quinoxalinyl-3-[4-(trifluoromethyl)-3-pyridazinyl]pyrido[2,3-b]pyrazin-8-amine]		< 1 µM
CCN(CC)c1cc(C(F)(F)F)c(-c2cnc3c(Nc4ccc(C(F)(F)F)cn4)ccnc3n2)nn1 [Compound 126, 3-[6-(diethylamino)-4-(trifluoromethyl)pyridazin-3-yl]-N-[5-(trifluoromethyl)pyridin-2-yl]pyrido[2,3-b]pyrazin-8-amine]		< 1 µM
CCCNc1cc(C(F)(F)F)c(-c2cnc3c(Nc4ccc(C(F)(F)F)cn4)ccnc3n2)nn1 [Compound 102, 3-[6-(propylamino)-4-(trifluoromethyl)pyridazin-3-yl]-N-[5-(trifluoromethyl)pyridin-2-yl]pyrido[2,3-b]pyrazin-8-amine]		< 1 µM
CCCN(CCC)CCNc1cc(C(F)(F)F)c(-c2cnc3c(Nc4ccc(C(F)(F)F)cn4)ccnc3n2)nn1 [Compound 83, N,N-dipropyl-N′-[5-(trifluoromethyl)-6-(8-{[5-(trifluoromethyl)pyridin-2-yl]amino}pyrido[2,3-b]pyrazin-3-yl)pyridazin-3-yl]ethane-1,2-diamine]		< 1 µM
CCCN(C)c1cc(C(F)(F)F)c(-c2cnc3c(Nc4ccc(C(F)(F)F)cn4)ccnc3n2)nn1 [Compound 121, 3-{6-[methyl(propyl)amino]-4-(trifluoromethyl)pyridazin-3-yl}-N-[5-(trifluoromethyl)pyridin-2-yl]pyrido[2,3-b]pyrazin-8-amine]		< 1 µM
CN(CCOCCO)c1cc(C(F)(F)F)c(-c2cnc3c(Nc4ccc(C(F)(F)F)cn4)ccnc3n2)nn1 [Compound 67, 2-(2-{methyl[5-(trifluoromethyl)-6-(8-{[5-(trifluoromethyl)pyridin-2-yl]amino}pyrido[2,3-b]pyrazin-3-yl)pyridazin-3-yl]amino}ethoxy)ethanol]		< 1 µM
CN1CCN(c2cc(C(F)(F)F)c(-c3cnc4c(Nc5ccc(C(F)(F)F)cn5)ccnc4n3)nn2)CC1 [Compound 145, 3-[6-(4-methylpiperazin-1-yl)-4-(trifluoromethyl)pyridazin-3-yl]-N-[5-(trifluoromethyl)pyridin-2-yl]pyrido[2,3-b]pyrazin-8-amine]		< 1 µM
CCCCNc1cc(C(F)(F)F)c(-c2cnc3c(Nc4ccc(C(F)(F)F)cn4)ccnc3n2)nn1 [Compound 104, 3-[6-(butylamino)-4-(trifluoromethyl)pyridazin-3-yl]-N-[5-(trifluoromethyl)pyridin-2-yl]pyrido[2,3-b]pyrazin-8-amine]		< 1 µM
CC(C)(CO)Nc1cc(C(F)(F)F)c(-c2cnc3c(Nc4ccc(C(F)(F)F)cn4)ccnc3n2)nn1 [Compound 171, 2-methyl-2-{[5-(trifluoromethyl)-6-(8-{[5-(trifluoromethyl)pyridin-2-yl]amino}pyrido[2,3-b]pyrazin-3-yl)pyridazin-3-yl]amino}propan-1-ol]		< 1 µM
FC(F)(F)c1ccc(Nc2ccnc3nc(-c4nnc(N5CCCCC5)cc4C(F)(F)F)cnc23)nc1 [Compound 176, 3-[6-piperidin-1-yl-4-(trifluoromethyl)pyridazin-3-yl]-N-[5-(trifluoromethyl)pyridin-2-yl]pyrido[2,3-b]pyrazin-8-amine]		< 1 µM
